Measurements published in ChEMBL document CHEMBL1201862, “PubChem BioAssay data set” (2004).
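Cells were grown in 96-well plates and exposed to each compound for 48 hours at five concentrations; endpoints were interpolated linearly between bracketing concentrations, or set to the highest concentration if not reached. The concentration for 50% growth inhibition is given as GI50.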 Activity calls are given as the source filed them. No stated cut-off is given here; in the data, active = GI50 up to about 1.1 µM and inactive = higher. Non-standard residues stand in square brackets, D forms with d. Residues, ends and D or L forms follow the SMILES beside them. ξ: configuration not given here. *: point of attachment. ξHyp = O=C(O)C1CC(O)CN1; Cbz = O=C(OCc1ccccc1)*

How the values were obtained:
Experiment in all cases: NCI-60 cell line screen, 48 h
[1] = test system: SN12C
[2] = test system: RPMI-8226
[3] = test system: HOP-92
[4] = test system: OVCAR-3
[5] = test system: TK-10
[6] = test system: T47D
[7] = test system: K562
[8] = test system: MDA-N
[9] = test system: NCI-H23
[10] = test system: MDA-MB-435
[11] = test system: A498
[12] = test system: SK-MEL-5
[13] = test system: UO-31
[14] = test system: MDA-MB-231
[15] = test system: M14
[16] = test system: SNB-75
[17] = test system: SW-620
[18] = test system: COLO 205
[19] = test system: NCI-H522
[20] = test system: OVCAR-4

Measured: GI50

CC(=O)CC(=O)N1CCSC1=S
inactive: [1] > 10 µM | [2] > 10 µM | [3] > 10 µM | [4] > 10 µM | [5] > 10 µM | [6] 6.67 µM | [7] > 10 µM | [8] > 10 µM | [9] > 10 µM | [10] > 10 µM | [11] > 10 µM | [12] > 10 µM | [13] > 10 µM | [14] > 10 µM | [15] > 10 µM | [16] > 10 µM | [17] > 10 µM

COc1ccc(NC(=S)Nc2cc(C)cc(C)n2)cc1
inactive: [1] > 100 µM | [2] > 100 µM | [4] > 100 µM | [5] > 100 µM | [6] > 100 µM | [7] > 100 µM | [8] > 100 µM | [18] > 100 µM | [19] > 100 µM | [10] > 100 µM | [11] > 100 µM | [12] > 100 µM | [13] > 100 µM | [14] > 100 µM | [20] > 100 µM | [15] > 100 µM | [16] > 100 µM | [17] > 100 µM

O=C1OCC2(CO1)CC1C=CC2C1 (stereo unspecified)
inactive: [1] > 100 µM | [2] > 100 µM | [3] > 100 µM | [4] > 100 µM | [5] > 100 µM | [6] > 100 µM | [7] > 100 µM | [8] > 100 µM | [18] > 100 µM | [19] > 100 µM | [9] > 100 µM | [10] > 100 µM | [11] > 100 µM | [12] > 100 µM | [13] > 100 µM | [14] > 100 µM | [20] > 100 µM | [15] > 100 µM | [17] > 100 µM

CN(C)/C=N/[C@@H](C(=O)O)c1ccccc1
inactive: [1] > 100 µM | [2] > 100 µM | [3] > 100 µM | [4] > 100 µM | [5] > 100 µM | [6] > 100 µM | [7] > 100 µM | [8] > 100 µM | [18] > 100 µM | [9] > 100 µM | [10] > 100 µM | [11] > 100 µM | [12] > 100 µM | [13] > 100 µM | [14] > 100 µM | [20] > 100 µM | [15] > 100 µM | [16] > 100 µM | [17] > 100 µM

O/N=C\c1c(O)ccc2ccccc12
inactive: [1] 38.3 µM | [2] 49.8 µM | [3] 73.8 µM | [4] 20.2 µM | [5] 40.4 µM | [6] 27.8 µM | [7] 46.8 µM | [8] 66.5 µM | [18] 55.3 µM | [9] 83.6 µM | [10] 65 µM | [11] 56.2 µM | [12] 46.7 µM | [14] 46.3 µM | [15] 68.2 µM | [16] 41.8 µM | [17] 73.6 µM

COC(=O)C1Cc2cc3c(cc2C1=O)CCCC3 (stereo unspecified)
inactive: [1] 77.4 µM | [2] 45.9 µM | [4] > 100 µM | [5] 28 µM | [6] 37.6 µM | [7] 33.6 µM | [8] > 100 µM | [18] > 100 µM | [19] 80.5 µM | [9] 43.2 µM | [10] > 100 µM | [11] 53.5 µM | [12] 48 µM | [13] 51.9 µM | [14] 63.7 µM | [20] 64.9 µM | [15] > 100 µM | [16] 70.3 µM | [17] 47 µM

CN1c2ccccc2S(=O)(=O)n2c(COc3ccc(Cl)cc3)nnc21
inactive: [1] > 100 µM | [3] 28 µM | [4] > 100 µM | [5] > 100 µM | [6] > 100 µM | [7] > 100 µM | [8] > 100 µM | [18] > 100 µM | [19] 31.3 µM | [9] > 100 µM | [10] > 100 µM | [11] 30.5 µM | [12] > 100 µM | [13] > 100 µM | [14] 44.8 µM | [20] 59.3 µM | [15] > 100 µM | [17] > 100 µM

Cn1nc2ccc([N+](=O)[O-])c(Cn3nnc4ccccc43)c2n1
inactive: [1] > 100 µM | [2] > 100 µM | [3] > 100 µM | [4] > 100 µM | [5] > 100 µM | [6] > 100 µM | [7] > 100 µM | [8] 88.3 µM | [18] > 100 µM | [9] > 100 µM | [10] 90.8 µM | [11] > 100 µM | [12] 79.4 µM | [13] > 100 µM | [14] > 100 µM | [20] > 100 µM | [15] > 100 µM | [16] 70.3 µM | [17] > 100 µM

NC(=O)CNC(=O)C1CC(O)CN1C(=O)OCc1ccccc1 (stereo unspecified) (Cbz-[ξHyp]-Gly-NH2)
inactive: [1] > 100 µM | [2] > 100 µM | [4] > 100 µM | [5] > 100 µM | [6] > 100 µM | [7] > 100 µM | [8] > 100 µM | [18] > 100 µM | [19] > 100 µM | [9] > 100 µM | [10] > 100 µM | [11] > 100 µM | [12] > 100 µM | [13] > 100 µM | [14] > 100 µM | [20] > 100 µM | [15] > 100 µM | [16] > 100 µM | [17] > 100 µM

CCOC(=O)C12CCC(=O)N1N(C)c1ncccc1N2 (stereo unspecified)
inactive: [2] > 100 µM | [4] > 100 µM | [5] > 100 µM | [6] > 100 µM | [7] > 100 µM | [8] > 100 µM | [18] > 100 µM | [19] > 100 µM | [9] > 100 µM | [10] > 100 µM | [11] > 100 µM | [12] > 100 µM | [13] > 100 µM | [14] > 100 µM | [20] > 100 µM | [15] > 100 µM | [16] 67.1 µM | [17] > 100 µM

S=c1nc(Nc2ccccc2)c2c3c(sc2[nH]1)CCCC3
inactive: [1] 56.4 µM | [2] > 100 µM | [4] > 100 µM | [5] > 100 µM | [6] > 100 µM | [7] > 100 µM | [8] > 100 µM | [18] > 100 µM | [19] 71.4 µM | [9] > 100 µM | [10] > 100 µM | [11] > 100 µM | [12] > 100 µM | [13] > 100 µM | [14] > 100 µM | [20] > 100 µM | [16] > 100 µM | [17] > 100 µM
